Read-outs that look alike come from different tables or passages of the source.
Tests used:
MV4-11 cells = assay: Antiproliferative assay in vitro (MTT), 72 h; format: cell-based, human; details: leukaemia cells; for IC50: MTT, 72 h exposure, mean ± SD; for Fold lower IC50 than free cinnamic / 3-methoxycinnamic acid: versus corresponding free acid
Method: (§1) Biophenotypic B myelomonocytic leukaemia MV4-11, human lung carcinoma A549, human breast carcinoma MCF-7, human colon carcinoma LoVo, its drug resistant line LoVo/DX, liver carcinoma HepG2, and normal mouse fibroblast BALB/3T3 cells were obtained from the American Type Culture Collection (Rockville, Maryland, USA). All lines are being maintained at the Institute of Immunology and Experimental Therapy, Wrocław, Poland. All cell lines were grown in a humid atmosphere at 37 °C with 5% CO2 and were cultured in media according to the method described before.[18]
(§2) Prior to usage, the compounds were dissolved in DMSO to the concentration of 25 or 50 mM, and subsequently diluted in the culture medium to reach the required concentrations (ranging from 5 to 625 μM).
(§3) Twenty-four hours before addition of the tested compounds, the cells were plated in 96-well plates (Sarstedt, USA) at a density of 10^4 cells per well. All cell lines were exposed to each tested phosphatidylcholines for 72 h. Cells were also exposed to the commercially available drugs cisplatin and doxorubicin. Cell lines were also exposed to the solvent used for the tested compounds (DMSO) at concentrations corresponding to those present in the tested agents' dilutions. For adherent cells, a SRB assay was performed and an MTT assay was performed for leukaemia cells.
This technique was applied for the cytotoxicity screening against leukemia cells. An assay was performed after 72 h exposure to varying concentrations (from 5 to 625 μM) of the tested agents. For the last 3–4 hours of incubation. 20 μL of MTT solution was added to each well (MTT: 3-(4,5-dimethylthiazol-2-yl)-2,5-diphenyl tetrazolium bromide; stock solution: 5 mg mL^−1, Sigma, Germany). The mitochondria of viable cells reduce the pale yellow MTT to a navy blue formazan: the more viable cells are present in a well, the more MTT will be reduced to formazan. When the incubation time was completed, 80 μL of the lysing mixture was added to each well (lysing mixture: 225 mL dimethylformamide, 67.5 g sodium dodecyl sulphate, and 275 mL of distilled water). After 24 h, when formazan crystals had been dissolved, the optical densities of the samples were read with a Multiskan RC photometer at 570 nm wavelength. Each compound in a given concentration was tested in triplicate in each experiment, which was repeated 3–5 times.
(§4) The results of the cytotoxic activity in vitro were expressed as IC50—the concentration of compound (in μM) that inhibits the proliferation rate of the tumor cells by 50% as compared to control untreated cells.

LoVo cells = assay: Antiproliferative assay in vitro (SRB), 72 h; format: cell-based, human; details: colon cancer cells, 72 h exposure, mean ± SD
Method: as §1, §2, §3
(§5) The cytotoxicity assay was performed after 72 h exposure of the cultured cells to varying concentrations (from 5 to 625 μM) of the tested agents. The cells attached to the plastic were fixed in situ by gently adding 50 μL per well of cold 50% TCA (trichloroacetic acid). The plates were incubated at 4 °C for 1 h and then washed five times with tap water. The background optical density was measured in the wells filled with culture medium, without the cells. The cellular material fixed with TCA was stained with 50 μL of 0.4% sulforhodamine B (SRB) dissolved in 1% acetic acid for 30 min. Unbound dye was removed by rinsing (4×) with 1% acetic acid. The protein-bound dye was extracted with 10 mM unbuffered Tris base for determination of the optical density (at 540 nm) in a computer-interfaced 96-well microtiter plate reader Multiskan RC photometer (Labsystems, Helsinki, Finland). Each compound in the given concentration was tested in triplicate in each experiment, which was repeated 3–5 times.
as §4

LoVo/DX cells = assay: Antiproliferative assay in vitro (SRB), 72 h; format: cell-based, human; details: for Resistance index (RI): doxorubicin-resistant LoVo/DX cell line versus LoVo; for IC50: doxorubicin-resistant colon cancer cells, SRB, 72 h exposure, mean ± SD
Method: as §1, §2, §3, §5, §4

A549 cells = assay: Antiproliferative assay in vitro (SRB), 72 h; format: cell-based, human; details: 72 h exposure, mean ± SD, read-out: IC50 A-549
Method: as §1, §2, §3, §5, §4

MCF-7 cells = assay: Antiproliferative assay in vitro (SRB), 72 h; format: cell-based, human; details: 72 h exposure, mean ± SD
Method: as §1, §2, §3, §5, §4

HepG2 cells = assay: Antiproliferative assay in vitro (SRB), 72 h; format: cell-based, human; details: 72 h exposure, mean ± SD
Method: as §1, §2, §3, §5, §4

BALB/3T3 cells = assay: Antiproliferative assay in vitro (SRB), 72 h; format: cell-based, mouse; details: 72 h exposure, mean ± SD
Method: as §1, §2, §3, §5, §4

[1] = Homo sapiens, A549, lung cancer cells
[2] = Homo sapiens, MCF7, breast cancer cells
[3] = Homo sapiens, HepG2, liver cancer cells
[4] = Mus musculus, BALB/3T3, normal mice fibroblast cells

| Compound | IC50 (MV4-11 cells) | Fold lower IC50 than free cinnamic / 3-methoxycinnamic acid (MV4-11 cells) | IC50 (LoVo cells) | IC50 (LoVo/DX cells) | IC50 (A549 cells; lung cancer cells) | IC50 (MCF-7 cells; breast cancer cells) | IC50 (HepG2 cells; liver cancer cells) | IC50 (MV4-11 cells; Homo sapiens, MV4-11) | IC50 (LoVo cells; Homo sapiens, LoVo) | IC50 (LoVo/DX cells; Homo sapiens, LoVo/DX) | IC50 (A549 cells; [1]) | IC50 (MCF-7 cells; [2]) | IC50 (HepG2 cells; [3]) | Resistance index (RI) (LoVo/DX cells) | IC50 (BALB/3T3 cells; normal mice fibroblast cells) | Ability to overcome drug resistance (LoVo/DX cells; doxorubicin-resistant LoVo/DX cell line, judged from RI) | IC50 (BALB/3T3 cells; [4]) |
| --- | --- | --- | --- | --- | --- | --- | --- | --- | --- | --- | --- | --- | --- | --- | --- | --- | --- |
| N.N.[Cl][Pt][Cl] [Cisplatin, cisplatin, reference compound] | 1.3 ± 0.47 µM | – | 2.56 ± 0.4 µM | 3.17 ± 0.2 µM | 8.6 ± 0.7 µM | 8.1 ± 0.03 µM | 2.38 ± 0.64 µM | – | – | – | – | – | – | – | 4.2 ± 1.1 µM | – | – |
| O=C(O)/C=C/c1ccccc1 [Compound 1a, Cinnamic acid] | – | – | – | – | – | – | – | 359 ± 105 µM | 284 ± 26.6 µM | > 625 µM | > 625 µM | 480 ± 46.2 µM | > 625 µM | – | – | – | > 625 µM |
| COc1cccc(C=CC(=O)O)c1 [Compound 1b, 3-methoxycinnamic acid] | – | – | – | – | – | – | – | 339 ± 111 µM | 233 ± 15.5 µM | > 625 µM | > 625 µM | 420 ± 56.2 µM | > 625 µM | – | – | – | 506 ± 67.7 µM |
| C[N+](C)(C)CCOP(=O)([O-])OC[C@@H](COC(=O)C=Cc1ccccc1)OC(=O)C=Cc1ccccc1 [Compound 3a, 1,2-Dicinnamoyl-sn-glycero-3-phosphocholine] | – | – | – | – | – | – | – | 215 ± 51.9 µM | 200 ± 49.7 µM | 329 ± 12.5 µM | > 625 µM | 321 ± 11.1 µM | > 625 µM | 1.65 | – | – | > 625 µM |

More lines, main results first:

| IC50 (MV4-11 cells) | Fold lower IC50 than free cinnamic / 3-methoxycinnamic acid (MV4-11 cells) | IC50 (LoVo cells) | IC50 (LoVo/DX cells) | IC50 (A549 cells; lung cancer cells) | IC50 (MCF-7 cells; breast cancer cells) | IC50 (HepG2 cells; liver cancer cells) | IC50 (MV4-11 cells; Homo sapiens, MV4-11) | IC50 (LoVo cells; Homo sapiens, LoVo) | IC50 (LoVo/DX cells; Homo sapiens, LoVo/DX) | IC50 (A549 cells; [1]) | IC50 (MCF-7 cells; [2]) | IC50 (HepG2 cells; [3]) | Compound | Resistance index (RI) (LoVo/DX cells) | IC50 (BALB/3T3 cells; normal mice fibroblast cells) | Ability to overcome drug resistance (LoVo/DX cells; doxorubicin-resistant LoVo/DX cell line, judged from RI) | IC50 (BALB/3T3 cells; [4]) |
| --- | --- | --- | --- | --- | --- | --- | --- | --- | --- | --- | --- | --- | --- | --- | --- | --- | --- |
| 30.5 ± 8.2 µM | 11 fold | 85.1 ± 11.9 µM | 160 ± 61.7 µM | 259 ± 16.7 µM | 84.1 ± 7.4 µM | 272 ± 33.1 µM | – | – | – | – | – | – | 1-(3-Methoxycinnamoyl)-2-hydroxy-sn-glycero-3-phosphocholine [Compound 9b] | 1.88 | 154 ± 66.4 µM | – | – |
| 44.3 ± 5.1 µM | 8 fold | 112 ± 26.3 µM | 238.2 ± 2.3 µM | 287.1 ± 2 µM | 104 ± 4.4 µM | 290 ± 19.4 µM | – | – | – | – | – | – | 1-Cinnamoyl-2-hydroxy-sn-glycero-3-phosphocholine [Compound 9a] | 2.13 | 160 ± 45.7 µM | moderate ability to overcome drug resistance | – |

Source: publication PMC9088016, “Synthesis and biological evaluation of phosphatidylcholines with cinnamic and 3-methoxycinnamic acids with potent antiproliferative activity” (RSC Advances, 2018)
